The target of the experiment is T1, hGPR120 (Homo sapiens, UniProt Q5NUL3).
T1 construct: expressed in transfected cells; host or cells: CHO-K1
T1 sequence (Q5NUL3 1-361): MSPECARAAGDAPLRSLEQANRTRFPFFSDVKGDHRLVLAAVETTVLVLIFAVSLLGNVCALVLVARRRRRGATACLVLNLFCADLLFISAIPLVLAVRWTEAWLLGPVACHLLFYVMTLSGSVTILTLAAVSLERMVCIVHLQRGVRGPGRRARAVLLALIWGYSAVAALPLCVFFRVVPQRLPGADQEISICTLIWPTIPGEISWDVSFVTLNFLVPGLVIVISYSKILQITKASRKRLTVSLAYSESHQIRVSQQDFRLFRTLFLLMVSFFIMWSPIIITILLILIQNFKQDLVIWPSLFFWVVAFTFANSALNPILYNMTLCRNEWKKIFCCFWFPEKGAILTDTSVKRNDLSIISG
Briefly: Measurement of Activity of GPR120 Agonist (Cell-Based Assay), Calcium 5 dye fluorescence. As to conditions: CHO-K1 cells expressing Ga16 and hGPR120. The gist of the method: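 Fluorescence increase (Ex 485 nm, Em 525 nm) after agonist addition was calculated as relative percent of the 1% DMSO-only signal. Cells were CHO-K1 stably carrying Gα16 plus human GPR120, dye-loaded for 1 h after overnight (18 h) culture.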

The text below walks through data of patent US11261186B2, “Biaryl derivative as GPR120 agonist” (LG CHEM, LTD., priority 2014, dated 2022).

pEC50: −log10 of the molar value. Where only a bound is given, the exact number is not on record here.

One may read the pEC50 as the EC50 on a negative log10 scale, so that one unit is a factor of ten.

`Oc1cc(CNc2c(F)cc(-c3cccnc3OC3CCCC3)cc2F)on1` [Example 84, 5-[[4-[2-(cyclopentoxy)-3-pyridyl]-2,6-difluoro-anilino]methyl]isoxazol-3-ol]: the pEC50 is over 6.70. For `CC(C)Sc1cccc(-c2cc(F)c(OCc3cc(O)no3)c(F)c2)n1` [Example 70, 5-[[2,6-difluoro-4-(6-isopropylsulfanyl-2-pyridyl)phenoxy]methyl]isoxazol-3-ol], the pEC50 was over 6.70. Turning to `CC(C)Sc1ncccc1-c1ccc2cc(OCCCC(=O)O)ccc2c1` [Example 5, 4-[6-(2-isopropylsulfanyl-pyridin-3-yl)-naphthalen-2-yloxy]-butyric acid], the pEC50 was 5.70 to 6.70. Consider `O=C(O)CC1CCN(c2c(F)cc(-c3nccc(OCC4CC4)n3)cc2F)CC1` [Example 332, 2-[1-[4-[4-(cyclopropylmethoxy)pyrimidin-2-yl]-2,6-difluoro-phenyl]-4-piperidyl]acetic acid], for which the pEC50 was over 6.70. On to `O=C(O)CCCCc1ccc(-c2cccnc2OCC2CC2)cc1F` [Example 247, 5-[4-(2-cyclopropylmethoxy-pyridin-3-yl)-2-fluoro-phenyl]-pentanoic acid], for which the pEC50 is over 6.70. To `CC(C)n1cc(Cl)c2ccc(-c3cc(F)c(OCCCC(=O)O)c(F)c3)cc21` [Example 562, 4-[4-(3-chloro-1-isopropyl-1H-indol-6-yl)-2,6-difluoro-phenoxy]-butanoic acid] belongs 4.70 to 5.70. For the compound `O=C(O)CCCOc1c(F)cc(-c2cccc3c2OC2(CCCC2)O3)cc1F` [Example 287, 4-(2,6-difluoro-4-spiro[1,3-benzodioxol-2,1′-cyclopentan]-4-yl-phenoxy)butanoic acid], the pEC50 was over 6.70. `O=C(O)CC1CN(c2c(F)cc(-c3cncc(OCC4CC4)n3)cc2F)C1` [Example 335, 2-[1-[4-[6-(cyclopropylmethoxy)pyrazin-2-yl]-2,6-difluoro-phenyl]azetidin-3-yl]acetic acid]: the pEC50 is over 6.70. For the compound `CCCOc1cc(C)nc(-c2cc(F)c(N3CCC(CC(=O)O)CC3)c(F)c2)n1` [Example 351, 2-[1-[2,6-difluoro-4-(4-methyl-6-propoxy-pyrimidin-2-yl)phenyl]-4-piperidyl]acetic acid], the pEC50 is over 6.70. Then `O=C(O)CC1CN(c2c(F)cc(-c3cccc(OC4CCCC4)n3)cc2F)C1` [Example 116, 2-[1-[4-[6-(cyclopentoxy)-2-pyridyl]-2,6-difluoro-phenyl]azetidin-3-yl]acetic acid], with over 6.70; and `Cc1cc(Oc2ccc(F)c(F)c2)nc(-c2cc(F)c(N3CCC(CC(=O)O)CC3)c(F)c2)n1` [Example 608, 2-[1-[2,6-difluoro-4-[4-(3,4-fluorophenoxy)-6-methyl-pyrimidin-2-yl]phenyl]-4-piperidyl]acetic acid], with 5.70 to 6.70.

With `O=C(O)C[C@@H]1CCN(c2c(F)cc(-c3cccc(OCC4CC4)n3)cc2F)C1` [Example 604, {(S)-1-[4-(6-cyclopropylmethoxy-pyridin-2-yll)-2,6-difluoro-phenyl]-pyrrolidin-3-yl}-acetic acid], the pEC50 is over 6.70. For `O=C(O)C1CC1COc1c(F)cc(-c2cccc(OC3CCC3)n2)cc1Cl` (stereo not drawn) [Example 554, 2-[2-chloro-4-(6-cyclobutoxy-pyridin-2-yl)-6-fluoro-phenoxymethyl]-cyclopropanecarboxylic acid], the pEC50 was over 6.70. With `O=C(O)CC1CCN(c2c(F)cc(-c3cccc(OCC(F)(F)F)n3)cc2F)CC1` [Example 315, 2-[1-[2,6-difluoro-4-[6-(2,2,2-trifluoroethoxy)-2-pyridyl]phenyl]-4-piperidyl]acetic acid], the negative-log EC50 (pEC50) is 5.70 to 6.70. Regarding `CC(C)COc1ccnc(-c2cc(F)c(N3CCC(CC(=O)O)CC3)c(F)c2)n1` [Example 348, 2-[1-[2,6-difluoro-4-(4-isobutoxypyrimidin-2-yl)phenyl]-4-piperidyl]acetic acid], the pEC50 was over 6.70.
